One may read the IC50 as the concentration needed to halve the response being measured.

Molecules are shown by their SMILES.

For this experiment, the target named is T1, mTOR (Homo sapiens, UniProt P42345).
T1 construct: mTOR protein was isolated from HeLa cell cytoplasmic extract by immunoprecipitation; endogenous in cells; host or cells: HeLa cell cytoplasmic extract (immunoprecipitate)
The experiment can be described thus: Biological Assay: mTOR enzyme activity, mTOR immunoprecipitated from HeLa cell cytoplasmic extract, recombinant PHAS-1 as substrate. In kind it is biochemical. Conditions: Biological Assay, upper bounds; read-out: IC50 values against mTOR.
From the text: For mTOR enzyme activity assays, mTOR protein was isolated from HeLa cell cytoplasmic extract by immunoprecipitation, and activity determined essentially as described previously using recombinant PHAS-1 as a substrate (ref. 21).
Take `Cc1ccc(Nc2ccc3c(N4CCOCC4)nc(N4C[C@@H](C)O[C@@H](C)C4)nc3n2)cc1` [Example 2j]: the IC50 was less than 1000 nM.
With `C[C@@H]1CN(c2nc(N3CCOCC3)c3ccc(-c4cnn(C)c4)nc3n2)C[C@H](C)O1` [Example 1ad] the figure was less than 1000 nM; with `CC(C)c1cccc(Nc2ccc3c(N4CCOCC4)nc(N4C[C@@H](C)O[C@@H](C)C4)nc3n2)c1` [Example 2n], less than 1000 nM.
With `Cc1cccc(Nc2ccc3c(N4CCOCC4)nc(N4C[C@@H](C)O[C@@H](C)C4)nc3n2)n1` [Example 2be] the figure was less than 1000 nM; with `C[C@@H]1CN(c2nc(N3CCOCC3)c3ccc(-c4ccncc4)nc3n2)C[C@H](C)O1` [Example 1ac], less than 1000 nM.
With `COc1ccc(-c2ccc3c(N4CCOCC4)nc(N(CCO)CCO)nc3n2)cc1CO` [Example 1o] the figure was less than 100 nM; with `C[C@@H]1CN(c2nc(N3CCOCC3)c3ccc(-c4ccc5c(c4)OCCO5)nc3n2)C[C@H](C)O1` [Example 1at], less than 1000 nM; with `C[C@@H]1CN(c2nc(N3CCOCC3)c3ccc(NC(=O)c4cnc5ccccc5n4)nc3n2)C[C@H](C)O1` [Example 5e], less than 10000 nM.
As to `CCNC(=O)Nc1ccc2c(N3CCOCC3)nc(N3C[C@@H](C)O[C@@H](C)C3)nc2n1` [Example 4a], the concentration for half-maximal inhibition (IC50) was less than 10000 nM.
As for `C[C@@H]1CN(c2nc(N3CCOCC3)c3ccc(NC4CCC4)nc3n2)C[C@H](C)O1` [Example 2ai], the IC50 was less than 10000 nM.
As for `C[C@@H]1CN(c2nc(N3CCOCC3)c3ccc(-c4ccoc4)nc3n2)C[C@H](C)O1` [Example 1aa], the figure is less than 1000 nM; as for `C[C@@H]1CN(c2nc(N3CCOCC3)c3ccc(Nn4cnnc4)nc3n2)C[C@H](C)O1` [Example 2r], less than 10000 nM; as for `C[C@@H]1CN(c2nc(N3CCOCC3)c3ccc(NC(=O)CSc4ccccc4)nc3n2)C[C@H](C)O1` [Example 5d], less than 10000 nM.
As for `CC1CCCCN1c1nc(N2CCOCC2)c2ccc(-c3ccccc3)nc2n1` (stereo not shown) [1 h], the figure is less than 10000 nM; as for `C[C@@H]1CN(c2nc(N3CCOCC3)c3ccc(Nc4ccc(Cl)cc4O)nc3n2)C[C@H](C)O1` [Example 2aa], less than 1000 nM.
As for `C[C@H]1CCCCN1c1nc(N2CCOCC2)c2ccc(N)nc2n1` [Example 3b], the figure is less than 1000 nM.
For `Cc1ccc(-c2ccc3c(N4CCOCC4)nc(N4CCCC[C@@H]4C)nc3n2)cc1` [Example 1s], the IC50 was less than 1000 nM.
For the molecule `C[C@@H]1CN(c2nc(N3CCOCC3)c3ccc(Nc4nc[nH]c4C#N)nc3n2)C[C@H](C)O1` [Example 2ar], the IC50 was less than 1000 nM.
As for `C=C(C)CNc1ccc2c(N3CCOCC3)nc(N3C[C@@H](C)O[C@@H](C)C3)nc2n1` [Example 2v], the figure is less than 10000 nM; as for `C[C@@H]1CN(c2nc(N3CCOCC3)c3ccc(-c4ccc5c(c4)OCCCO5)nc3n2)C[C@H](C)O1` [Example 1ba], less than 10000 nM; as for `C[C@H]1CCCCN1c1nc(N2CCOCC2)c2ccc(Nc3ccccc3)nc2n1` [Example 2i], less than 1000 nM.
With `C[C@@H]1CN(c2nc(N3CCOCC3)c3ccc(-c4cccc5ccccc45)nc3n2)C[C@H](C)O1` [Example 1an] the figure was less than 1000 nM.
As for `C[C@@H]1CN(c2nc(N3CCOCC3)c3ccc(NC4CCCCC4)nc3n2)C[C@H](C)O1` [Example 2af], the figure is less than 1000 nM; as for `COCCN(CCOC)c1nc(N2CCOCC2)c2ccc(-c3ccc(OC)c(CO)c3)nc2n1` [Example 1af], less than 1000 nM.
With `C[C@@H]1CN(c2nc(N3CCOCC3)c3ccc(Nc4cccc5cccnc45)nc3n2)C[C@H](C)O1` [Example 2o], the IC50 is less than 10000 nM.
With `C[C@@H]1CN(c2nc(N3CCOCC3)c3ccc(-c4ccc(O)cc4)nc3n2)C[C@H](C)O1` [Example 1l] the figure was less than 100 nM; with `C[C@@H]1CN(c2nc(N3CCOCC3)c3ccc(-c4cccc(CO)c4)nc3n2)C[C@H](C)O1` [Example 1q], less than 100 nM; with `C[C@@H]1CN(c2nc(N3CCOCC3)c3ccc(Nc4ccc(C5SCCS5)cc4)nc3n2)C[C@H](C)O1` [Example 2ae], less than 10000 nM.
Take `CCC1CCCCN1c1nc(N2CCOCC2)c2ccc(-c3ccc(OC)c(CO)c3)nc2n1` (stereo not shown) [Example 1bc]: the IC50 was less than 100 nM.
As for `C[C@@H]1CN(c2nc(N3CCOCC3)c3ccc(Nc4oc(-c5ccccc5)cc4C#N)nc3n2)C[C@H](C)O1` [Example 2ap], the figure is less than 1000 nM; as for `C[C@@H]1CN(c2nc(N3CCOCC3)c3ccc(-c4ccc(OC(F)(F)F)cc4)nc3n2)C[C@H](C)O1` [Example 1ao], less than 1000 nM; as for `C[C@@H]1CN(c2nc(N3CCOCC3)c3ccc(Nc4ccncc4)nc3n2)C[C@H](C)O1` [Example 2ba], less than 100 nM.
As for `COc1ccc(/C=C/c2ccc(Nc3ccc4c(N5CCOCC5)nc(N5C[C@@H](C)O[C@@H](C)C5)nc4n3)cc2)cc1` [Example 2p], the figure is less than 1000 nM.
For the molecule `COc1ccc(-c2ccc3c(N4CCOCC4)nc(N4CCCC[C@@H]4C)nc3n2)cc1` [Example 1u], the IC50 is less than 1000 nM.
With `C[C@@H]1CN(c2nc(N3CCOCC3)c3ccc(-c4cccc(C(N)=O)c4)nc3n2)C[C@H](C)O1` [Example 1ai] the figure was less than 1000 nM; with `C[C@@H]1CN(c2nc(N3CCOCC3)c3ccc(-c4ccc5[nH]ccc5c4)nc3n2)C[C@H](C)O1` [Example 1x], less than 1000 nM.
With `C[C@@H]1CN(c2nc(N3CCOCC3)c3ccc(NC4CCN(C)CC4)nc3n2)C[C@H](C)O1` [Example 2w] the figure was less than 10000 nM; with `CC(=O)c1ccc(-c2ccc3c(N4CCOCC4)nc(N4C[C@@H](C)O[C@@H](C)C4)nc3n2)cc1` [Example 1aq], less than 1000 nM; with `CCCCOc1ccc2c(N3CCOCC3)nc(N3C[C@@H](C)O[C@@H](C)C3)nc2n1` [Example 7], less than 10000 nM.
As for `C[C@@H]1CN(c2nc(N3CCOCC3)c3ccc(Nc4ccnc(-c5cccnc5)n4)nc3n2)C[C@H](C)O1` [Example 2aw], the figure is less than 1000 nM; as for `Cc1cscc1-c1ccc2c(N3CCOCC3)nc(N3C[C@@H](C)O[C@@H](C)C3)nc2n1` [Example 1v], less than 1000 nM.
For `C[C@@H]1CN(c2nc(N3CCOCC3)c3ccc(Nc4cccnc4)nc3n2)C[C@H](C)O1` [Example 2az], the IC50 is less than 1000 nM.
As for `C[C@@H]1CN(c2nc(N3CCOCC3)c3ccc(-c4ccc(C(=O)O)s4)nc3n2)C[C@H](C)O1` [Example 1ar], the figure is less than 1000 nM.
With `C[C@@H]1CN(c2nc(N3CCOCC3)c3ccc(-c4cccc(N5CCOCC5)c4)nc3n2)C[C@H](C)O1` [Example 1as], the IC50 is less than 1000 nM.
With `C[C@@H]1CN(c2nc(N3CCOCC3)c3ccc(-c4ccsc4)nc3n2)C[C@H](C)O1` [Example 1i], the IC50 was less than 100 nM.
With `COC(=O)c1ccc(Nc2ccc3c(N4CCOCC4)nc(N4C[C@@H](C)O[C@@H](C)C4)nc3n2)o1` [Example 2an] the figure was less than 10000 nM; with `C[C@@H]1CN(c2nc(N3CCOCC3)c3ccc(NC4CCCC4)nc3n2)C[C@H](C)O1` [Example 2ag], less than 10000 nM.
Regarding `COC(=O)c1cccc(-c2ccc3c(N4CCOCC4)nc(N4C[C@@H](C)O[C@@H](C)C4)nc3n2)c1` [Example 1am], the IC50 was less than 1000 nM.
Regarding `COc1ccc(-c2ccc3c(N4C[C@@H](C)O[C@@H](C)C4)nc(N4CCOCC4)nc3n2)cc1CO` [Example 1ae], the IC50 is less than 1000 nM.
With `C[C@@H]1CN(c2nc(N3CCOCC3)c3ccc(NC4CC4)nc3n2)C[C@H](C)O1` [Example 2ah] the figure was less than 1000 nM; with `C[C@@H]1CN(c2nc(N3CCOCC3)c3ccc(Nc4ccsc4)nc3n2)C[C@H](C)O1` [Example 2aq], less than 1000 nM; with `CC(=O)c1ccc(-c2ccc3c(N4CCOCC4)nc(N4C[C@@H](C)O[C@@H](C)C4)nc3n2)s1` [Example 1ag], less than 1000 nM.
As to `C[C@@H]1CN(c2nc(N3CCOCC3)c3ccc(NS(C)(=O)=O)nc3n2)C[C@H](C)O1` [Example 6], the IC50 was less than 10000 nM.
For `CC(=O)Nc1ccc2c(N3CCOCC3)nc(N3C[C@@H](C)O[C@@H](C)C3)nc2n1` [Example 5f], the IC50 is less than 10000 nM.
As for `C[C@@H]1CN(c2nc(N3CCOCC3)c3ccc(-c4ccc(C=O)s4)nc3n2)C[C@H](C)O1` [Example 1ap], the concentration for half-maximal inhibition (IC50) was less than 1000 nM.
With `C[C@@H]1CN(c2nc(N3CCOCC3)c3ccc(Nc4ccc(-n5cccc5)cc4)nc3n2)C[C@H](C)O1` [Example 2q] the figure was less than 1000 nM; with `C[C@@H]1CN(c2nc(N3CCOCC3)c3ccc(-c4ccc([N+](=O)[O-])cc4)nc3n2)C[C@H](C)O1` [Example 1z], less than 1000 nM.
As for `C[C@@H]1CN(c2nc(N3CCOCC3)c3ccc(Nc4nc(-c5ccccc5Cl)cs4)nc3n2)C[C@H](C)O1` [Example 2s], the figure is less than 10000 nM.
With `COc1ccc(-c2ccc3c(N4C[C@@H](C)O[C@@H](C)C4)nc(N4CCOC[C@@H]4C)nc3n2)cc1CO` [Example 1p] the figure was less than 100 nM; with `COc1ccc(-c2ccc3c(N4CCOCC4)nc(N4C[C@@H](C)O[C@@H](C)C4)nc3n2)cc1` [Example 1e], less than 100 nM; with `C=CCNc1ccc2c(N3CCOCC3)nc(N3C[C@@H](C)O[C@@H](C)C3)nc2n1` [Example 2am], less than 10000 nM.
In the case of `C[C@@H]1CN(c2nc(N3CCOCC3)c3ccc(Nc4nccc(-c5ccco5)n4)nc3n2)C[C@H](C)O1` [Example 2ax], the IC50 is less than 1000 nM.
With `COc1ccc(-c2ccc3c(N4CCOCC4)nc(N4C[C@@H](C)O[C@@H](C)C4)nc3n2)cc1CNCc1cccs1` [Example 8j], the IC50 is less than 100 nM.
As for `C[C@@H]1CN(c2nc(N3CCOCC3)c3ccc(N(C)C)nc3n2)C[C@H](C)O1` [Example 2d], the figure is less than 10000 nM.
As for `C[C@@H]1CN(c2nc(N3CCOCC3)c3ccc(Nc4cc(F)c(F)cc4[N+](=O)[O-])nc3n2)C[C@H](C)O1` [Example 2ac], the figure is less than 1000 nM; as for `COC(=O)c1cc(Nc2ccc3c(N4CCOCC4)nc(N4C[C@@H](C)O[C@@H](C)C4)nc3n2)cn1C` [Example 2as], less than 1000 nM.
As for `C[C@@H]1CN(c2nc(N3CCOCC3)c3ccc(Nc4ccc(C#N)cc4)nc3n2)C[C@H](C)O1` [Example 2h], the figure is less than 1000 nM.
